Like-named read-outs stand apart in the source and are kept apart here.
Assays:
Format in all cases: in vivo
Plutella xylostella = assay: Leaf dip method (cabbage) against Plutella xylostella (Example C); conditions: 72 h
From the text: (§1) In which E represents the expected percentage of inhibition of the pests for the combination of two insecticides or one insecticide and one fungicide at defined doses (for example equal to x and y respectively), x is the percentage of inhibition observed for the pest/disease by the compound (1) at a given dose (equal to x), y is the percentage of inhibition observed for the pest/disease by the compound (2) or (3) at a defined dose (equal to y). When the percentage of inhibition observed for the combination is greater than E, there is a synergistic effect.
The leaf dip method was used, wherein the required quantity of the compound or respective compound combinations were weighed and dissolved in a test solution prepared in tubes. The tubes were put on a vortex at 2000 rpm for 90 min for proper mixing and then diluted with a 0.01% Triton-X solution to the desired test concentration. Cabbage leaves were dipped into the solution for 10 seconds, shade dried for 20 min and then transferred to single cells of bioassay trays. A single second instar larva was released into each cell and the tray was covered with a lid. The bio-assay trays were kept under laboratory conditions at a temperature of 25° C. and relative humidity of 70%. Observations on dead, moribund and live larvae were recorded 72 h after the release. Percent mortality was calculated by combining dead and moribund larvae and comparing the result with the one of the untreated control. The results are shown for compound of formula (I-1) in Table C.

Helicoverpa armigera = assay: Diet incorporation method against Helicoverpa armigera (Example A); conditions: 96 h
From the text: as §1
The diet incorporation method was used, in which semi-synthetic diet was incorporated into the test solutions consisting either of the single compounds or respective compound combinations, when the temperature was approximately 50° C. in the bio-assay containers, then stirred thoroughly for proper mixing and allowed to cool for 30 min. The solidified diet was cut into equal pieces, and then each piece was transferred into one cell of a bio-assay tray. A single starved third instar larva was released into each of these cells of the bio-assay trays and the tray was covered with a lid. The bio-assay trays were kept under laboratory conditions at a temperature of 25° C. and relative humidity of 70%. Observations on dead, moribund and live larvae were recorded 96 h after the release of the larvae. Percent mortality was calculated by combining dead and moribund larvae and comparing the result to the one of the untreated control. The results are shown for the compound of formula (I-1) in Table A.

Spodoptera litura = assay: Diet incorporation method against Spodoptera litura (Example B); conditions: 96 h; for pest or weed control at 10 ppm: read-out: Observed Efficacy (%), 10 ppm
From the text: as §1
The diet incorporation method was used, in which semi-synthetic diet was incorporated into the test solution consisting either of the single compound or respective compound combinations, when the temperature was approximately 50° C. in the bioassay containers, then stirred thoroughly for proper mixing and allowed to cool for 30 min. The solidified diet was cut into equal pieces, and then each piece was transferred into one cell of the bio-assay trays. A single starved third instar larva was released into each of these cells of the bio-assay trays and the tray was covered with a lid. The bio-assay trays were kept under laboratory conditions at a temperature of 25° C. and relative humidity of 70%. Observations on dead, moribund and live larvae were recorded 96 h after the release. Percent mortality was calculated by combining dead and moribund larvae and comparing the result with the one of the untreated control. The results are shown for the compound of formula (I-1) in Table B.

Phakopsora pachyrhizi = assay: Preventive glasshouse test against Phakopsora pachyrhizi in soybean (Example H); conditions: preventive spray
From the text: as §1
The single compounds or the respective compound combinations were dissolved in 2% dimethyl sulfoxide/acetone and then mixed with water containing an emulsifier to a calibrated spray volume of 50 ml. The test solutions were poured into spray bottles for further applications.
To test the preventive activity of compounds, healthy young Soybean plants, raised in the greenhouse, were sprayed with the active compound preparation at the stated application rates inside the spray cabinets using hollow cone nozzles. One day after treatment, the plants were inoculated with a suspension containing 2×10^5 Phakopsora pachyrhizi conidia. The inoculated plants were then kept in a greenhouse chamber at a temperature of 22-24° C. and 80-90% relative humidity for disease expression.
A visual assessment of the performance of the single compounds and respective compound combinations was carried out by rating the disease severity (0-100% scale) on treated plants 3, 7, 10 and 15 days after application. Efficacy (% control) of the compounds was calculated by comparing the disease rating in the treatment with the one of the untreated control. The compounds were also assessed for their plant compatibility by recording symptoms like necrosis, chlorosis and stunting. The results have been described for the compound of formula (I-1) in Table H.

[1] = test system: Parastagonospora nodorum/Septoria nodorum/Stagnospora nodorum; assay: Preventive glasshouse test against Septoria nodorum in wheat (Example J); conditions: preventive spray
From the text: as §1
(§2) The single compounds or respective compound combinations were dissolved in 2% dimethyl sulfoxide/acetone and then mixed with water containing emulsifier to a calibrated spray volume of 50 mL. The test solutions were poured into spray bottles for further applications.
[…] One day after treatment, the plants were inoculated with a spore suspension containing 2.8×10^6 Stagnospora nodorum inoculum.
The inoculated plants were then kept in a greenhouse chamber at 22-25° C. temperature and 90-100% relative humidity for disease expression.
(§3) A visual assessment of the performance of the single compounds or compound combinations was carried out by rating the disease severity (0-100% scale) on treated plants 3, 7, 10 and 15 days after application. Efficacy (% control) of the single compounds and mixtures was calculated by comparing the disease rating in the treatment with the one of the untreated control. The compounds were also assessed for their plant compatibility by recording symptoms like necrosis, chlorosis and stunting. The results have been described for the compound of formula (I-1) in Table J.

Alternaria solani = assay: Preventive glasshouse test against Alternaria solani in tomato (Example G); conditions: 100 ppm, preventive spray
From the text: as §1, §2
To test the preventive activity, healthy young tomato plants, raised in the greenhouse, were sprayed with the active compound preparation at the stated application rates inside the spray cabinets using hollow cone nozzles. One day after treatment, the plants were inoculated with a spore suspension containing 0.24×10^6 Alternaria solani inoculum and 2% Malt. The inoculated plants were then kept in a greenhouse chamber at a temperature of 22-24° C. and 90-95% relative humidity for disease expression.
as §3, with “G.” for “J.”

Erysiphe cichoracearum = assay: Preventive glasshouse test against Erysiphe cichoracearum in cucumber (Example K); conditions: 50 ppm, preventive spray
From the text: as §1
The single compounds or the respective compound combinations were dissolved in 2% dimethyl sulfoxide/acetone and then mixed with water containing emulsifier to a calibrated spray volume of 50 mL. The test solutions were poured into spray bottles for further applications. […]
A visual assessment of the performance of the compounds and the respective compound combinations was carried out by rating the disease severity (0-100% scale) on treated plants 3, 7, 10 and 15 days after application. Efficacy (% control) of the single compounds or compound combinations was calculated by comparing the disease rating in the treatment with the one of the untreated control. The compounds were also assessed for their plant compatibility by recording symptoms like necrosis, chlorosis and stunting. […]

[2] = Plutella xylostella, foliar, read-out: Observed Efficacy (%)
[3] = Helicoverpa armigera, read-out: Observed Efficacy (%)

For `N#Cc1ccc(CC(=NNC(=O)Nc2ccc(OC(F)(F)F)cc2)c2cccc(C(F)(F)F)c2)cc1` (mixture of isomers) [Metaflumizone, metaflumizone], the “Observed Efficacy (%)” value (Plutella xylostella; 0.001 ppm) was 12.5%.
`Cc1c(COC(=O)[C@@H]2[C@H](/C=C(\Cl)C(F)(F)F)C2(C)C)cccc1-c1ccccc1` (racemic) [Bifenthrin, bifenthrin] was tested, and the pest or weed control at 20 ppm (Helicoverpa armigera; Helicoverpa armigera, 20 ppm, read-out: Observed Efficacy (%)) was 75%, the pest or weed control at 10 ppm (Spodoptera litura) was 12.5% and the pest or weed control at 1 ppm (Plutella xylostella; [2]) was 25%.
For `CO/C=C(/C(=O)OC)c1ccccc1Oc1cc(Oc2ccccc2C#N)ncn1` [Azoxystrobin, azoxystrobin], the “Observed Efficacy (%)” value (Phakopsora pachyrhizi; 0.1 ppm) was 39%, the “Observed Efficacy (%)” value ([1]; 0.05 ppm) was 12% and the “Observed Efficacy (%)” value ([1]; 0.1 ppm) was 24%.
Work on `CCOCn1c(-c2ccc(Cl)cc2)c(C#N)c(Br)c1C(F)(F)F` [Chlorfenapyr, chlorfenapyr] yielded a pest or weed control at 0.15 ppm (Plutella xylostella; Plutella xylostella, foliar, 0.15 ppm, read-out: Observed Efficacy (%)) of 62.5% and a pest or weed control at 0.2 ppm (Plutella xylostella; Plutella xylostella, foliar, 0.2 ppm, read-out: Observed Efficacy (%)) of 75%.
Compound `CN/C(=N\[N+](=O)[O-])NCc1cnc(Cl)s1` [Clothianidin, clothianidin] has a pest or weed control at 10 ppm (Spodoptera litura) of 0% and a pest or weed control at 0.1 ppm (Plutella xylostella; [2]) of 0%.
`N#Cc1nn(-c2c(Cl)cc(C(F)(F)F)cc2Cl)c(N)c1[S+]([O-])C(F)(F)F` (stereo not shown) [Fipronil, fipronil] gave a pest or weed control at 0.005 ppm (Plutella xylostella; Plutella xylostella, foliar, 0.005 ppm, read-out: Observed Efficacy (%)) of 50%.
`CCc1nc2cc(C)c(Oc3ccc(OC(F)(F)F)cc3)cc2c(OC(=O)OC)c1C` [Flometoquin, flometoquin] was tested, and the “Observed Efficacy (%)” value (Plutella xylostella; 0.001 ppm) was 0% and the “Observed Efficacy (%)” value (Plutella xylostella; 0.005 ppm) was 62.5%.
Compound `N#Cc1c[nH]cc1-c1cccc2c1OC(F)(F)O2` [Fludioxonil, fludioxonil] has a pest or weed control at 100 ppm (Helicoverpa armigera; Helicoverpa armigera, 100 ppm, read-out: Observed Efficacy (%)) of 0%.
In the case of `CON=CNC(=O)c1ccc(C2=NOC(c3cc(Cl)cc(Cl)c3)(C(F)(F)F)C2)cc1C` (stereo not shown) [Fluxametamide, fluxametamide], the “Observed Efficacy (%)” value (Helicoverpa armigera; 0.13 ppm) is reported as 12.5% and the “Observed Efficacy (%)” value (Helicoverpa armigera; 0.28 ppm) is reported as 12.5%.
`Cn1cc(C(=O)Nc2ccccc2-c2cc(F)c(F)c(F)c2)c(C(F)F)n1` [Fluxapyroxad, fluxapyroxad] was tested, and the “Observed Efficacy (%)” value (Phakopsora pachyrhizi; 0.05 ppm) was 41%.
With `O=[N+]([O-])NC1=NCCN1Cc1ccc(Cl)nc1` [Imidacloprid, imidacloprid] the pest or weed control at 50 ppm (Spodoptera litura; read-out: Observed Efficacy (%), 50 ppm) was 25% and the pest or weed control at 0.1 ppm (Plutella xylostella; [2]) was 0%.
With `COCC(=O)N(c1c(C)cccc1C)C(C)C(=O)OC` (stereo not shown) [Metalaxyl, metalaxyl] the pest or weed control at 100 ppm (Spodoptera litura; read-out: Observed Efficacy (%), 100 ppm) was 0% and the “Observed Efficacy (%)” value (Alternaria solani) was 17%.
Compound `CCS(=O)(=O)c1cccnc1-c1nc2cc(S(=O)(=O)C(F)(F)F)ccc2o1` [Oxazosulfyl, 2-[3-(ethanesulfonyl)pyridin-2-yl]-5-[trifluoro(methanesulfonyl)]-1,3-benzoxazole] has a pest or weed control at 100 ppm (Spodoptera litura; 100 ppm, read-out: Observed Efficacy (%)) of 0% and a pest or weed control at 0.1 ppm (Plutella xylostella; [2]) of 0%.
In the case of `C=CCOC1=NS(=O)(=O)c2ccccc21` [Probenazole, probenazole], the pest or weed control at 200 ppm (Helicoverpa armigera; [3]) is reported as 12.5%.
For `CC1=NNC(=O)N(/N=C/c2cccnc2)C1` [Pymetrozine, pymetrozine], the pest or weed control at 0.01 ppm (Plutella xylostella; Plutella xylostella, foliar, 0.01 ppm, read-out: Observed Efficacy (%)) was 0% and the pest or weed control at 0.05 ppm (Plutella xylostella; [2]) was 0%.
For `COC(=O)N(OC)c1ccccc1COc1ccn(-c2ccc(Cl)cc2)n1` [Pyraclostrobin, pyraclostrobin], the pest or weed control at 200 ppm (Helicoverpa armigera; [3]) was 0%, the pest or weed control at 500 ppm (Helicoverpa armigera; Helicoverpa armigera, 500 ppm, read-out: Observed Efficacy (%)) was 0% and the pest or weed control at 200 ppm (Spodoptera litura; read-out: Observed Efficacy (%), 200 ppm) was 0%. For the same compound, the pest or weed control at 500 ppm (Spodoptera litura; read-out: Observed Efficacy (%), 500 ppm) was 0%.
Compound `FC(F)(F)c1ccc(OCCCOc2c(Cl)cc(OCC=C(Cl)Cl)cc2Cl)nc1` [Pyridalyl, pyridalyl] has a pest or weed control at 0.002 ppm (Plutella xylostella; Plutella xylostella, foliar, 0.002 ppm, read-out: Observed Efficacy (%)) of 50%.
With `CC(COc1ccc(Oc2ccccc2)cc1)Oc1ccccn1` (stereo not shown) [Pyriproxyfen] the pest or weed control at 0.05 ppm (Plutella xylostella; [2]) was 12.5%.
With `CN1COCN(Cc2cnc(Cl)s2)/C1=N\[N+](=O)[O-]` [Thiamethoxam, thiamethoxam] the pest or weed control at 1 ppm (Plutella xylostella; [2]) was 12.5%.
With `COC(=O)NC(=S)Nc1ccccc1NC(=S)NC(=O)OC` [Thiophanate-methyl, thiophanate-methyl] the “Observed Efficacy (%)” value (Erysiphe cichoracearum) was 29%.
With `CCN(C(=O)CCSCCC(F)(F)F)c1cn(-c2cccnc2)nc1Cl` [Tyclopyrazoflor] the “Observed Efficacy (%)” value (Helicoverpa armigera; 100 ppm) was 12.5%.
For spinetoram, the “Observed Efficacy (%)” value (Helicoverpa armigera; 2.5 ppm) was 87.5%.

Reference: patent US20230276803A1, “A PESTICIDALLY ACTIVE MIXTURE COMPRISING THIETANYLOXY COMPOUND, OXIDES OR SALTS THEREOF” (PI INDUSTRIES LTD., priority 2020, published 2023)
